According to patent publication US20240262814A1, “MODULATORS OF TREX1” (Constellation Pharmaceuticals, Inc., priority 2021, published 2024):
pIC50: −log10 of the molar value.

Tested on: hTREX1 HCT116
Test: hTREX1 HCT116 Cell Assay (Lucia luciferase reporter, Type I interferon induction)
Type: cell-based
Conditions: Homo sapiens, HCT-116, HCT116 dual cells, 4h compound, then pBR322/BstNI DNA transfection, 48h
Text: HCT116 dual cells (Invivogen, San Diego, CA, USA) are derived from the human HCT116 colorectal carcinoma cell line. Cells have been selected for the stable integration of SEAP and Luciferase reporter genes, which expression is under the control of 5 tandem response elements for NF-KB/AP1 and STAT1/STAT2, respectively. The cell line was used to monitor Type I interferon induction and subsequent signaling by measuring the activity of the Lucia luciferase secreted in the culture medium.
HCT116 cells were plated in 96-well plate(s) at 40,000 cells/well in 100 uL DMEM supplemented with 10% FBS and 25 mM Hepes (pH 7.2-7.5). After overnight settling, cells were treated with TREX1i for 4h (maximum DMSO fraction was 0.1%) before 1 ug/mL pBR322/BstNI restriction digest (New England Biolabs, Ipswich, MA, USA) was transfected with Lipofectamine LTX (ThermoFisher, Grand Island, NY, USA), according to product manual recommendations. Briefly, Lipofectamine LTX (0.35 uL/well) was diluted in OptiMEM (5 uL/well). pBR322/BstNI (100 ng/well) was diluted in OptiMEM (5 uL/well) before Plus reagent (0.1 uL/100 ng DNA) was added. After 5 min incubation at room temperature, the DNA mixture was mixed dropwise with the diluted Lipofectamine LTX. After an additional 10 min incubation, the transfection mix (10 uL/well) was added to the cells. Cells were maintained at 37 C for 48h before monitoring the Lucia Luciferase activity from the cell culture medium.

Compound | pIC50
CC(c1nc(C(=O)Nc2cnoc2)c(O)c(=O)n1C)C(c1ccccc1)c1ccccc1 (single isomer, unassigned) [Example 1 Isomer 1, 2-(1,1-diphenylpropan-2-yl)-5-hydroxy-N-(isoxazol-4-yl)-1-methyl-6-oxo-1,6-dihydro pyrimidine-4-carboxamide] | < 7.00
CC(c1nc(C(=O)Nc2cnoc2)c(O)c(=O)n1C)C(c1ccccc1C#N)c1ccccc1C#N (single isomer, unassigned) [Example 4 Isomer 2] | > 8.00
C[C@H](c1nc(C(=O)Nc2cnoc2)c(O)c(=O)n1C)[C@H](c1ccccc1)c1ccccc1C(F)(F)F (single isomer, unassigned) [Example 14 Isomer 2, 5-Hydroxy-N-(isoxazol-4-yl)-1-methyl-6-oxo-2-(1-phenyl-1-(2-(trifluoromethyl)phenyl)propan-2-yl)-1,6-dihydropyrimidine-4-carboxamide] | < 7.00
C[C@H](c1nc(C(=O)Nc2cnoc2)c(O)c(=O)n1C)C(c1ccccc1Cl)c1ccccc1Cl (single isomer, unassigned) [Example 15 Isomer 1, 2-(1,1-bis(2-chlorophenyl)propan-2-yl)-5-hydroxy-N-(isooxazol-4-yl)-1-methyl-6-oxo-1,6-dihydropyrimidine-4-carboxamide] | 7.00 to 8.00

Continued, values first:

pIC50 | Compound
7.00 to 8.00 | CC(c1nc(C(=O)Nc2cnoc2)c(O)c(=O)n1C)C(c1ccccc1)c1cc(C(=O)N(C)C)ccc1C#N (single isomer, unassigned) [Example 17 Isomer 3]
< 7.00 | Cn1c([C@H](C(c2ccccc2)c2ccccc2)C(F)(F)F)nc(C(=O)Nc2cnoc2)c(O)c1=O (single isomer, unassigned) [Example 20 Isomer 1, 5-Hydroxy-N-(isoxazol-4-yl)-1-methyl-6-oxo-2-(1,1,1-trifluoro-3,3-diphenylpropan-2-yl)-1,6-dihydropyrimidine-4-carboxamide]
> 8.00 | Cn1c([C@@H](C(c2ccccc2C#N)c2ccccc2C#N)C(F)(F)F)nc(C(=O)Nc2cnoc2)c(O)c1=O (single isomer, unassigned) [Example 21 Isomer 1, 2-(3,3-bis(2-cyanophenyl)-1,1,1-trifluoropropan-2-yl)-5-hydroxy-N-(isoxazol-4-yl)-1-methyl-6-oxo-1,6-dihydropyrimidine-4-carboxamide]
